What was measured:
[1] = test system: solid tumor xenograft panel; assay: Xenograft pharmacodynamic analysis (immunoblot of tumor lysates); type: in vivo, mice; conditions: 40 mg/kg, 6 hours post-dosing, high MCL-1:BCL-xL ratio tumors
Procedure: Each tumor was divided into three parts. Two parts were snap frozen in liquid nitrogen and stored at −80° C. The third part was preserved in 10% neutral buffered formalin for 24 hours then stored in 70% ethanol at ambient temperature. Whole cell lysates from one snap frozen part were prepared by disruption/homogenation at 4° C. in a 2 ml conical-end microfuge tube containing two stainless steel beads ( 5/32″, grade 25, Ball Supply Corp) and 0.4 ml lysis buffer [1% Triton X-100, 30 mM Tris pH 7.4, 1 mM EDTA and protease (complete, mini, EDTA-free, Roche) and phosphatase (PhosSTOP, Roche) cocktail inhibitors] using a Qiagen Lyser II, shaking at 30 Hz for 2 minutes. 200 μl of pre-chilled 3×RIPA (Cell Signaling Technology) containing protease and phosphatase cocktail inhibitors was added to the homogenate, rotated at 4° C. for 10 minutes, and microcentrifuged at 12 kpm for 10 minutes at 4° C. The supernatant was removed, normalized for protein content using a BCA kit (Pierce, Rockford, Ill.) and stored at −80° C. For Western blots, 5 μg of lysate were subjected to SDS-PAGE except for cleaved PARP analysis, which required loading of 0.5 μg of lysate.

[2] = test system: 23 lung, breast, ovarian, colorectal, and prostate cell lines; assay: 18 hour viability assay (ATP quantitation); type: cell-based; conditions: Homo sapiens, 100 nM, range over 23 cell lines, read-out: cell viability relative to DMSO-negative control

CCc1cnn2c(NCc3ccc[n+]([O-])c3)cc(N3CCCC[C@H]3CCO)nc12 [SCH 727965 (Dinaciclib)]
apoptosis (cleaved PARP) in tumors [1]: induced apoptosis | viability at 0.1 µM [2]: 23 to 102%
